Consider six molecules from patent US5652238A, “Esters of substituted-hydroxyacetyl piperazine phenyl oxazolidinones” (Pharmacia & Upjohn Company, priority 1996, dated 1997).

≈ marks a conversion by molar mass, not a printed value.

A short description of data set [1]: Aqueous solubility (pH 7, phosphate buffer). It counts as physicochemical.
The subject of data set [2] is Staphylococcus aureus UC9213 or Streptococcus species. Briefly: Antimicrobial activity in vivo, Murine Assay (mice infected intraperitoneally with bacteria; ED50 from survival over six days). The settings on record: 144 h, female mice, treatment one hour and five hours after infection. As for the experimental part:
Antimicrobial activity was tested in vivo using the Murine Assay procedure. Groups of female mice (six mice of 18-20 grams each) were injected intraperitoneally with bacteria which were thawed just prior to use and suspended in brain heart infusion with 4% brewers yeast UC9213 (Staphylococcus aureus) or brain heart infusion (Streptococcus species). Antibiotic treatment at six dose levels per drug was administered one hour and five hours after infection by either oral intubation or subcutaneous ("subcut.") routes. Survival was observed daily for six days. ED50 values based on mortality ratios were calculated using probit analysis. The subject compounds were compared against a well-known antimicobial (Vancomycin) as a control.

For the molecule `CC(=O)NC[C@H]1CN(c2ccc(N3CCN(C(=O)COC(=O)C(C)(CO)CO)CC3)c(F)c2)C(=O)O1` [Example 22, 2,2-bis(hydroxymethyl)propionic acid, 2-[4-[4-[5-[(acetylamino)methyl]-2-oxo-3-oxazolidinyl]-2-fluorophenyl]-1-piperazinyl]-2-oxoethyl ester, (S)-], the solubility in data set [1] was 13000 µg/mL (≈ 25.5 mM). In addition, the ED50 in data set [2] (oral) is greater than 18 mg/kg; in data set [2] (sc, subcut.), 4 mg/kg.
`CC(=O)NC[C@H]1CN(c2ccc(N3CCN(C(=O)COC(=O)CO)CC3)c(F)c2)C(=O)O1` [Example 23, Hydroxyacetic acid, 2-[4-[4-[5[(acetylamino)methyl]-2-oxo-3-oxazolidinyl]-2-fluorophenyl]-1-piperazinyl]-2-oxoethyl ester, (S)]: in data set [1], the solubility was determined as 4200 µg/mL (≈ 9.28 mM). In addition, the ED50 in data set [2] (oral) came out at 2 mg/kg; in data set [2] (sc, subcut.) it was 1 mg/kg.
In the same order, the values of `COCC(=O)OCC(=O)N1CCN(c2ccc(N3C[C@H](CNC(C)=O)OC3=O)cc2F)CC1` [Example 25, Methoxyacetic acid, 2-(4-(4-(5-((acetylamino)methyl)-2-oxo3-oxazolidinyl)-2-fluorophenyl)-1-piperazinyl)-2-oxoethyl ester, (S)] are 6400 µg/mL (≈ 13.7 mM), 8 mg/kg and 15 mg/kg.
In data set [1], `CC(=O)NC[C@H]1CN(c2cc(F)c(N3CCN(C(=O)COC(=O)CCN4CCOCC4)CC3)c(F)c2)C(=O)O1` [Example 26, 3-(N-morpholinyl)propionic acid, 2-(4-(4-(5-((acetylamino)methyl)-2-oxo-3-oxaxzolidinyl)-2,6-difluorophenyl)-1-piperazinyl)-2-oxoethyl ester, (S)] displayed a solubility of 8200 µg/mL (≈ 14.8 mM). For the same molecule, the ED50 in data set [2] (oral) stood at 6 mg/kg; in data set [2] (sc, subcut.), 3 mg/kg.
Molecule `CC(=O)NC[C@H]1CN(c2ccc(N3CCN(C(=O)COC(=O)CN4CCOCC4)CC3)c(F)c2)C(=O)O1` [Example 27, (4-morpholinyl)acetic acid, 2-(4-(4-(5-((acetylamino)methyl)-2-oxo-3-oxazolidinyl)-2-fluorophenyl)-1-piperazinyl)-2-oxoethyl ester, (S)] gave a solubility in data set [1] of 55300 µg/mL (≈ 106 mM). Further, the median effective dose (ED50) in data set [2] (oral) amounted to 6 mg/kg.
In the same order, the values of `CC(=O)NC[C@H]1CN(c2ccc(N3CCN(C(=O)COC(=O)c4ccc(NC(=O)CN)cc4)CC3)c(F)c2)C(=O)O1` [Example 29, 4-N-(glycinyl)aminobenzoic acid, 2-[4-[4-[5-[(acetylamino)methyl]-2-oxo-3-oxazolidinyl]-2-fluorophenyl]-1-piperazinyl]-2-oxoethyl ester, (S)-] are 9800 µg/mL (≈ 17.2 mM) and 9 mg/kg.
